Measured values from PubChem BioAssay (NCI).
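A five-concentration, 48-hour dose response in 96-well plates underlies each endpoint, interpolated linearly between surrounding concentrations. GI50 marks 50% less growth. At the TGI there is no net growth.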

Legend:
Assay in all cases: NCI-60 cell line screen, 48 h
CAKI-1 renal = tested on: CAKI-1 renal
SN12C renal = tested on: SN12C renal
HCC-2998 colon = tested on: HCC-2998 colon
OVCAR-3 ovarian = tested on: OVCAR-3 ovarian
UACC-62 melanoma = tested on: UACC-62 melanoma
HCT-116 colon = tested on: HCT-116 colon
NCI-H23 lung = tested on: NCI-H23 lung
MDA-MB-231 breast = tested on: MDA-MB-231 breast
RXF 393 renal = tested on: RXF 393 renal
IGROV1 ovarian = tested on: IGROV1 ovarian
TK-10 renal = tested on: TK-10 renal
OVCAR-5 ovarian = tested on: OVCAR-5 ovarian
SK-MEL-5 melanoma = tested on: SK-MEL-5 melanoma
UACC-257 melanoma = tested on: UACC-257 melanoma
PC-3 prostate = tested on: PC-3 prostate
786-0 renal = tested on: 786-0 renal
HOP-62 NSCLC = tested on: HOP-62 NSCLC
SK-MEL-28 melanoma = tested on: SK-MEL-28 melanoma
MALME-3M melanoma = tested on: MALME-3M melanoma
MCF7 breast = tested on: MCF7 breast
NCI-H522 lung = tested on: NCI-H522 lung
HL-60(TB) leukemia = tested on: HL-60(TB) leukemia
SK-OV-3 ovarian = tested on: SK-OV-3 ovarian
K-562 leukemia = tested on: K-562 leukemia
M14 melanoma = tested on: M14 melanoma
CCRF-CEM leukemia = tested on: CCRF-CEM leukemia
NCI/ADR-RES ovarian = tested on: NCI/ADR-RES ovarian
SNB-19 CNS = tested on: SNB-19 CNS
MDA-MB-435 = tested on: MDA-MB-435
U251 CNS = tested on: U251 CNS
A498 renal = tested on: A498 renal
HS 578T breast = tested on: HS 578T breast
SW-620 colon = tested on: SW-620 colon
RPMI-8226 leukemia = tested on: RPMI-8226 leukemia
SNB-75 CNS = tested on: SNB-75 CNS
OVCAR-4 ovarian = tested on: OVCAR-4 ovarian
SF-295 CNS = tested on: SF-295 CNS
MDA-MB-468 breast = tested on: MDA-MB-468 breast
NCI-H226 lung = tested on: NCI-H226 lung
LOX IMVI melanoma = tested on: LOX IMVI melanoma
SF-539 CNS = tested on: SF-539 CNS
A549 NSCLC = tested on: A549 NSCLC
SF-268 CNS = tested on: SF-268 CNS
HCT-15 colon = tested on: HCT-15 colon
KM12 colon = tested on: KM12 colon
BT-549 breast = tested on: BT-549 breast
UO-31 renal = tested on: UO-31 renal
COLO 205 colon = tested on: COLO 205 colon
EKVX NSCLC = tested on: EKVX NSCLC
ACHN renal = tested on: ACHN renal
SK-MEL-2 melanoma = tested on: SK-MEL-2 melanoma
OVCAR-8 ovarian = tested on: OVCAR-8 ovarian
DU-145 prostate = tested on: DU-145 prostate
MOLT-4 leukemia = tested on: MOLT-4 leukemia
HOP-92 NSCLC = tested on: HOP-92 NSCLC

O=C(NN1C(=O)/C(=C/C=C/c2ccc([N+](=O)[O-])o2)SC1=S)c1ccc(O)cc1
GI50 (CAKI-1 renal): 1500 nM
TGI (CAKI-1 renal): 2900 nM
GI50 (SN12C renal): 344 nM
TGI (SN12C renal): 1630 nM
GI50 (HCC-2998 colon): 1780 nM
TGI (HCC-2998 colon): 3320 nM
GI50 (OVCAR-3 ovarian): 1680 nM
TGI (OVCAR-3 ovarian): 3140 nM
GI50 (UACC-62 melanoma): 1050 nM
TGI (UACC-62 melanoma): 2260 nM
GI50 (HCT-116 colon): 382 nM
TGI (HCT-116 colon): 1570 nM
GI50 (NCI-H23 lung): 1270 nM
TGI (NCI-H23 lung): 2690 nM
GI50 (MDA-MB-231 breast): 399 nM
TGI (MDA-MB-231 breast): 1420 nM
GI50 (RXF 393 renal): 1560 nM
TGI (RXF 393 renal): 2990 nM
GI50 (IGROV1 ovarian): 1460 nM
TGI (IGROV1 ovarian): 2820 nM
GI50 (TK-10 renal): 1830 nM
TGI (TK-10 renal): 3510 nM
GI50 (OVCAR-5 ovarian): 1800 nM
TGI (OVCAR-5 ovarian): 3530 nM
GI50 (SK-MEL-5 melanoma): 1120 nM
TGI (SK-MEL-5 melanoma): 2340 nM
GI50 (UACC-257 melanoma): 1690 nM
TGI (UACC-257 melanoma): 3500 nM
GI50 (PC-3 prostate): 2370 nM
TGI (PC-3 prostate): 7230 nM
GI50 (786-0 renal): 1780 nM
TGI (786-0 renal): 3270 nM
GI50 (HOP-62 NSCLC): 1890 nM
TGI (HOP-62 NSCLC): 3600 nM
GI50 (SK-MEL-28 melanoma): 1670 nM
TGI (SK-MEL-28 melanoma): 3100 nM
GI50 (MALME-3M melanoma): 246 nM
TGI (MALME-3M melanoma): 558 nM
GI50 (MCF7 breast): 1410 nM
TGI (MCF7 breast): 3190 nM
GI50 (NCI-H522 lung): 217 nM
TGI (NCI-H522 lung): 498 nM
GI50 (HL-60(TB) leukemia): > 100000 nM
TGI (HL-60(TB) leukemia): > 100000 nM
GI50 (SK-OV-3 ovarian): 2490 nM
TGI (SK-OV-3 ovarian): 5960 nM
GI50 (K-562 leukemia): > 100000 nM
TGI (K-562 leukemia): > 100000 nM
GI50 (M14 melanoma): 316 nM
TGI (M14 melanoma): 1350 nM
GI50 (CCRF-CEM leukemia): 195 nM
TGI (CCRF-CEM leukemia): 1810 nM
GI50 (NCI/ADR-RES ovarian): 2200 nM
TGI (NCI/ADR-RES ovarian): 5210 nM
GI50 (SNB-19 CNS): 1920 nM
TGI (SNB-19 CNS): 3900 nM
GI50 (MDA-MB-435): 1130 nM
TGI (MDA-MB-435): 2510 nM
GI50 (U251 CNS): 1750 nM
TGI (U251 CNS): 3520 nM
GI50 (A498 renal): 18800 nM
TGI (A498 renal): 32800 nM
GI50 (HS 578T breast): 2520 nM
TGI (HS 578T breast): 8640 nM
GI50 (SW-620 colon): 307 nM
TGI (SW-620 colon): 996 nM
GI50 (RPMI-8226 leukemia): 713 nM
TGI (RPMI-8226 leukemia): 5340 nM
GI50 (SNB-75 CNS): 1310 nM
TGI (SNB-75 CNS): 4380 nM
GI50 (OVCAR-4 ovarian): 1860 nM
TGI (OVCAR-4 ovarian): 4220 nM
GI50 (SF-295 CNS): 2040 nM
TGI (SF-295 CNS): 4590 nM
GI50 (MDA-MB-468 breast): 1720 nM
TGI (MDA-MB-468 breast): 3580 nM
GI50 (NCI-H226 lung): 690 nM
TGI (NCI-H226 lung): 2280 nM
GI50 (LOX IMVI melanoma): 185 nM
TGI (LOX IMVI melanoma): 358 nM
GI50 (SF-539 CNS): 1660 nM
TGI (SF-539 CNS): 3120 nM
GI50 (A549 NSCLC): 3780 nM
TGI (A549 NSCLC): 16300 nM
GI50 (SF-268 CNS): 1970 nM
TGI (SF-268 CNS): 4340 nM
GI50 (HCT-15 colon): 212 nM
TGI (HCT-15 colon): 499 nM
GI50 (KM12 colon): 1930 nM
TGI (KM12 colon): 4290 nM
GI50 (BT-549 breast): 1360 nM
TGI (BT-549 breast): 2790 nM
GI50 (UO-31 renal): 1510 nM
TGI (UO-31 renal): 2910 nM
GI50 (COLO 205 colon): 1730 nM
TGI (COLO 205 colon): 3350 nM
GI50 (EKVX NSCLC): 1570 nM
TGI (EKVX NSCLC): 3190 nM
GI50 (ACHN renal): 1770 nM
TGI (ACHN renal): 3220 nM
GI50 (SK-MEL-2 melanoma): 1420 nM
TGI (SK-MEL-2 melanoma): 2990 nM
GI50 (OVCAR-8 ovarian): 1300 nM
TGI (OVCAR-8 ovarian): 3400 nM
GI50 (DU-145 prostate): 2350 nM
TGI (DU-145 prostate): 5790 nM
GI50 (MOLT-4 leukemia): > 100000 nM
TGI (MOLT-4 leukemia): > 100000 nM
GI50 (HOP-92 NSCLC): 1630 nM
TGI (HOP-92 NSCLC): 3690 nM
